The numbers were not newly measured in patent US20170020833A1, “METHOD FOR TREATING AND/OR PREVENTING ACNE SCARS WITH A FIXED COMBINATION OF ADAPALENE OR ITS SALTS AND BENZOYL PEROXIDE” (GALDERMA RESEARCH & DEVELOPMENT, priority 2014, published 2017), which cites them from elsewhere.

The subject of the data set is procollagen, MMP-1, 3 and MMP-9 in photodamage skin. The settings on record: oral or topical; leading to MMP-1, 3 and MMP-9 decrease in relation to treatment duration.

Turning to `CC1=C(/C=C/C(C)=C/C=C/C(C)=C\C(=O)O)C(C)(C)CCC1` [isotretinoin], the “Effect on UV-induced loss of procollagen” value is given as “protects against UV-induced loss of procollagen”.
